Assay results from patent US3956333A, “1(Or 3)-perfluoroalkyl-3,4-dihydro-2(1H)-isoquinolinecarbonitriles” (Sterling Drug Inc., priority 1975, dated 1976).
In brackets after ≈: the same amount, converted by molar mass. Values belong to the compound of their own block, whether it stands above or below them.

Key:
Staphylococcus aureus = test: Antibacterial activity, standard serial dilution technique (MIC); format: cell-based; conditions: read-out: minimal (bacteriostatic) inhibitory concentration (MIC)
From the text: The antibacterial activities for the compounds of formulas I and II and the compound of formula V where R is pentafluoroethyl were established using standard serial dilution techniques as described by Goss and Cimijotti, Applied Microbiology 16, 1414 (1968).

[1] = system: platelet aggregate (thrombus); test: In vivo inhibition of platelet aggregation, modified extracorporeal shunt technique (thrombus deposit weight); design: species or system New Zealand rabbits; conditions: single dose, 3 hours after medication; for % Inhibition of platelet aggregation (in vivo): P < 0.0005; for x Deposit Weight ± s.d.: mean
From the text: The antithrombotic or platelet aggregation inhibitory effect of the compounds of formulas I and II was further determined by a modified extracorporeal shunt technique in rabbits. Rowntree and Shinoya [J. Exp. Med. 46, 7 (1927)] described a method of extracorporeal circulation for the observation of thrombus formation. Downie et al. [Circulation Res. 12, 441 (1963)] modified this technique in order to study the effects of various chemicals upon the platelet aggregates formed in such a system. The following procedure, a further modification of said technique, was used to determine the antithrombotic activity of the compounds of the invention.
New Zealand rabbits weighing 1.5 to 3.0 kg. each were used for these studies. All animals were dosed orally by stomach tube with the test compound at a given time, e.g., 3, 8, 12, 24, etc. hours, prior to testing the blood samples. Control animals (from 3 to 5 in number for each dose level of compound) were given the vehicle used for solubilizing the compounds tested. All animals were anesthetized with sodium pentobarbital (Pentobrocanal) intravenously, 25-32 mg./kg., and secured to a dissecting board. The right femoral artery was cannulated and connected to a Statham pressure transducer (P 23AC) for continuously measuring arterial blood pressure which was recorded by means of a Grass (Model 7) polygraph.
A longitudinal incision was made in the midcervical region. The jugular vein and the carotid artery on one side were isolated and cannulated with appropriate size catheters filled with saline solution, which were in turn connected via Y-shaped polypropylene connectors establishing the shunt.
The components of the shunt were thoroughly siliconized except for the Y-connector on the arterial side. This connector is weighed prior to running the experiment. A blood sample was withdrawn from the femoral artery to provide a control platelet count. The animal was allowed 10-12 minutes to attain a relatively stable blood pressure level after which the shunt was opened and the blood permitted to flow. The time from the first appearance of blood, in the arterial catheter until its re-entry into the body, via the venous catheter, was measured and recorded, as flow time, which was used to determine the initial rate of flow.
The shunt remained open for a period of twenty minutes. One minute before the end, the femoral catheter was removed from the transducer and a second blood sample was taken. Duplicate platelet counts were made for each sample of blood. The shunt was removed from the animal by pulling out both catheters, arterial and venous, arterial first. The Y-connectors were washed with 10 cc. of saline solution. The arterial Y-connector was separated and dried in an oven overnight at 40°C., then reweighed. The initial weight of the connector was subtracted from the final weight, and the difference is considered to be the mass of the platelet aggregate (thrombus).
(single dose medication), the blood samples having been tested three hours after medication: […]

[2] = system: Platelet aggregation induced by ADP; conditions: Oryctolagus cuniculus, read-out: % Inhibition of platelet aggregation induced by ADP
[3] = system: Platelet aggregation induced by collagen; conditions: Oryctolagus cuniculus, read-out: % Inhibition of platelet aggregation induced by collagen

- MIC (Staphylococcus aureus): ~500 µg/mL (≈ 1990 µM)
Compound: FC(F)(F)C(F)(F)C1NCCc2ccccc21 (stereo not shown) [1,2,3,4-tetrahydro-1-(pentafluoroethyl)isoquinoline]

Compound: Cl.NC(=NO)N1CCc2ccccc2C1C(F)(F)C(F)(F)F (stereo not shown) [Example 1E]
- % Inhibition of platelet aggregation (in vivo) ([1]; 10 mg/kg oral): 17%
- x Deposit Weight ± s.d. ([1]; 10 mg/kg oral): 1.54 ± 0.09
- % Inhibition of platelet aggregation (in vivo) ([1]; 25 mg/kg oral): 38%
- x Deposit Weight ± s.d. ([1]; 25 mg/kg oral): 1.16 ± 0.05
- % Inhibition of platelet aggregation (in vivo) ([1]; 50 mg/kg oral): 41%
- x Deposit Weight ± s.d. ([1]; 50 mg/kg oral): 1.08 ± 0.08
- inhibition at 3000 µM [2]: 74.2%
- inhibition at 100 µM [3]: 24.3%

Compound: NC(=NO)N1CCc2ccccc2C1C(F)(F)C(F)(F)C(F)(F)F (stereo not shown) [Example 2E]
- inhibition at 1000 µM [2]: 8.3%
- inhibition at 1000 µM [3]: 94.2%

Compound: NC(=NO)N1Cc2ccccc2CC1C(F)(F)F (stereo not shown) [Example 3E]
- inhibition at 3000 µM [2]: 64.4%
- inhibition at 300 µM [3]: 67.4%
